From ChEMBL document CHEMBL2331139, “Discovery of BAF312 (Siponimod), a Potent and Selective S1P Receptor Modulator” (ACS Med Chem Lett, 2013)
pEC50: −log10 of the molar value. Calls of active or inactive are those of the source. The calls are words filed in the database; no cut-off is given here.

Assays:
[1] = biological target: T1, Sphingosine 1-phosphate receptor 3 (Homo sapiens, UniProt Q99500); experiment: Agonist activity at human S1P3 receptor transfected in CHO cells at 10 uM incubated for 10 to 15 mins prior to GTPgamma35S addition measured after 120 mins by GTPgamma35S binding assay relative to S1P; type: functional, cell-based
[2] = biological target: T2, Sphingosine 1-phosphate receptor 1 (Homo sapiens, UniProt P21453); experiment: Agonist activity at human S1P1 receptor transfected in CHO cells at 10 uM incubated for 10 to 15 mins prior to GTPgamma35S addition measured after 120 mins by GTPgamma35S binding assay relative to S1P; type: functional, cell-based
[3] = biological target: T1, Sphingosine 1-phosphate receptor 3; experiment: Agonist activity at human S1P3 receptor transfected in CHO cells incubated for 10 to 15 mins prior to GTPgamma35S addition measured after 120 mins by GTPgamma35S binding assay; type: functional, cell-based
[4] = biological target: T2, Sphingosine 1-phosphate receptor 1; experiment: Agonist activity at human S1P1 receptor transfected in CHO cells incubated for 10 to 15 mins prior to GTPgamma35S addition measured after 120 mins by GTPgamma35S binding assay; type: functional, cell-based
[5] = system: Rattus norvegicus; experiment: Reduction in peripheral lymphocyte count in po dosed Lewis rat after 6 hrs; type: functional
[6] = biological target: hERG (KCNH2) (Homo sapiens, UniProt Q12809); experiment: Inhibition of human ERG channel at 25 uM
[7] = Tmax in Lewis rat at 1 mg/kg, po after 8 hrs; type: ADME, organism-based; set-up: dose 1 mg/kg, route oral; conditions: in vivo
[8] = system: Rattus norvegicus; experiment: Reduction in peripheral lymphocyte count in Lewis rat at 1 mg/kg, po after 48 hrs; type: functional, organism-based; set-up: dose 1 mg/kg
[9] = system: Rattus norvegicus; experiment: Reduction in peripheral lymphocyte count in Lewis rat at 1 mg/kg, po after 8 hrs; type: functional; set-up: scale not given: the % may be the effect or the level left
[10] = Terminal half life in rat; type: ADME, organism-based; conditions: in vivo, read-out: beta t1/2 (converted)
[11] = Terminal half life in monkey; type: ADME, organism-based, Macaca mulatta; conditions: rhesus monkey, in vivo; read-out: beta t1/2 (converted)
[12] = Volume of distribution at steady state in monkey; type: ADME, organism-based, Macaca mulatta; conditions: rhesus monkey, in vivo; read-out: Vdss
[13] = Volume of distribution at steady state in rat; type: ADME, organism-based; conditions: in vivo, read-out: Vdss
[14] = Clearance in monkey; type: ADME, organism-based, Macaca mulatta; conditions: rhesus monkey, in vivo
[15] = Clearance in rat; type: ADME, organism-based; conditions: in vivo
[16] = Oral bioavailability in monkey; type: ADME, organism-based, Macaca mulatta; conditions: rhesus monkey, in vivo
[17] = Oral bioavailability in rat; type: ADME, organism-based; conditions: in vivo
[18] = Drug absorption in rat; type: ADME, organism-based; conditions: in vivo, read-out: Fabs
[19] = organism: Rattus norvegicus; experiment: Drug excretion in rat; type: ADME, organism-based; conditions: in vivo
[20] = system: Caco-2; experiment: Permeability across human Caco2 cells at 0.5 to 50 uM; type: ADME, cell-based; conditions: caco-2, 50 µM
[21] = Plasma protein binding in monkey; type: ADME, cell-free, Macaca mulatta; conditions: rhesus monkey, read-out: PPB
[22] = Plasma protein binding in human; type: ADME, cell-free; conditions: read-out: PPB
[23] = Plasma protein binding in dog; type: ADME, cell-free, Canis lupus familiaris; conditions: read-out: PPB
[24] = Plasma protein binding in rat; type: ADME, cell-free; conditions: read-out: PPB
[25] = system: Mus musculus; experiment: Volume of distribution at steady state in po dosed mouse; type: ADME, organism-based; conditions: in vivo
[26] = Elimination half life in po dosed mouse; type: ADME, organism-based; conditions: in vivo, read-out: beta t1/2

T2 sequence (P21453 whole entry): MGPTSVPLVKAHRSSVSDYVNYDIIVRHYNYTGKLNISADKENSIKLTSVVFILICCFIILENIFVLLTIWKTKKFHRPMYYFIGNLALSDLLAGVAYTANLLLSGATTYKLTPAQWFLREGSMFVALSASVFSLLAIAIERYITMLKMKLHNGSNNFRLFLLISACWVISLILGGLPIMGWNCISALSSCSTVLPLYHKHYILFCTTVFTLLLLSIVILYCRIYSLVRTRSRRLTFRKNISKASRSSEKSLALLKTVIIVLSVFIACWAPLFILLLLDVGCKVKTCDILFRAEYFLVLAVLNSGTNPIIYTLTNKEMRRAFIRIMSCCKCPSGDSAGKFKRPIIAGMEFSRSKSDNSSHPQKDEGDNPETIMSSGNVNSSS
T1 sequence (Q99500 whole entry): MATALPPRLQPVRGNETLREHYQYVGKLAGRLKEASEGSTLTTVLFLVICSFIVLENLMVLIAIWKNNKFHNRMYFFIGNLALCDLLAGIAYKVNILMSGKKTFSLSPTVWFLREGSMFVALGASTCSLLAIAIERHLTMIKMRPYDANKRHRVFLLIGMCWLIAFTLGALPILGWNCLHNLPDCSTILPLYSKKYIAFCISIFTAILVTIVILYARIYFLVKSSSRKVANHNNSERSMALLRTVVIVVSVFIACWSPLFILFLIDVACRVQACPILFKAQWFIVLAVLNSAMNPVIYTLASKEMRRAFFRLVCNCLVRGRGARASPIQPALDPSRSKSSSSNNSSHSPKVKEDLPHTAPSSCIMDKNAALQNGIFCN
hERG (KCNH2), sequence (Q12809 whole entry): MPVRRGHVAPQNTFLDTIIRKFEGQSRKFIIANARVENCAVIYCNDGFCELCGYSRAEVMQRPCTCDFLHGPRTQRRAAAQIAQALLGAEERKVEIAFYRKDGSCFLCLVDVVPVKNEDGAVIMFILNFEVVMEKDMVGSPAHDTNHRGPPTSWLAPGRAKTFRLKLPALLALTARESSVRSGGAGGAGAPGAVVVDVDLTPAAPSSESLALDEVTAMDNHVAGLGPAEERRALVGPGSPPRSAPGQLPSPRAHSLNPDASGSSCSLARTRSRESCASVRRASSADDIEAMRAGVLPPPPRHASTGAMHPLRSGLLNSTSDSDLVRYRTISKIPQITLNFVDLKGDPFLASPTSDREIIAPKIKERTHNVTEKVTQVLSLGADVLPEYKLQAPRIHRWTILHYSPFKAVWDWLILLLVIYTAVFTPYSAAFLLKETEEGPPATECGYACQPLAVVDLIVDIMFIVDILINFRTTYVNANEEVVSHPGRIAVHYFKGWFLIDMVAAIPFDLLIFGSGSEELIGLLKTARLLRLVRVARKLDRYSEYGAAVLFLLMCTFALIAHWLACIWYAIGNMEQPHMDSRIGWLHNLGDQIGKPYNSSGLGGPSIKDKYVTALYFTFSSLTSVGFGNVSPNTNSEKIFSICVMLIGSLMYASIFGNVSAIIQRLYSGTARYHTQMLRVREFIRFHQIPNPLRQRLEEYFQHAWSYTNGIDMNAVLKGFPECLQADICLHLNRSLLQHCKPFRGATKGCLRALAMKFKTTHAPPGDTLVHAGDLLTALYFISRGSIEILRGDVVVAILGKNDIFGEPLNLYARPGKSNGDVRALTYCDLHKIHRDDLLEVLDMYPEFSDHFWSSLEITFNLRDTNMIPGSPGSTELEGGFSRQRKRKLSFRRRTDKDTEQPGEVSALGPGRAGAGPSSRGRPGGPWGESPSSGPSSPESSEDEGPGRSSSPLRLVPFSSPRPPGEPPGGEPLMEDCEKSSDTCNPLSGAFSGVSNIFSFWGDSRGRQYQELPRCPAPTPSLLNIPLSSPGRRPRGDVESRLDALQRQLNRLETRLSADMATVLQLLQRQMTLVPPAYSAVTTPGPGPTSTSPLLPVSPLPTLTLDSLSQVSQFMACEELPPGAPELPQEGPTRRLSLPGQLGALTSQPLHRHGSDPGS

Compound | Emax [1] [%] | Emax [2] | pEC50 [3] | pEC50 [4] | further results
C/C(=N\OCc1ccc(-c2ccccc2)cc1F)c1ccc(CNCCC(=O)O)cc1 |  |  |  | 6.92 | 
CCc1cc(/C(C)=N/OCc2ccc(C3CCCCC3)c(C(F)(F)F)c2)ccc1CN1CC(C(=O)O)C1 [SIPONIMOD] | 55 | 91% | 5.30 |  | ED50 [5]: 0.14 mg/kg; inhibition at 25 µM [6]: < 10%; Tmax [7]: 8 h; Activity [8]: inactive; Activity [9]: 88%; half-life [10]: 360 min; half-life [11]: 1140 min; Vd [12]: 2.12 L/kg; Vd [13]: 2.15 L/kg; clearance [14]: 1.63 mL/min/kg; clearance [15]: 6 mL/min/kg; bioavailability [16]: 71%; bioavailability [17]: 50%; Fa [18]: 58%; Drug excretion [19]: Not Active; permeability [20]: permeable; fraction unbound [21]: < 0.001; fraction unbound [22]: < 0.001; fraction unbound [23]: < 0.001; fraction unbound [24]: < 0.001
C/C(=N\OCc1ccc(-c2ccccc2)cc1C(F)(F)F)c1ccc(CNCCC(=O)O)cc1 |  | inactive |  | 5.00 | 
C/C(=N\OCc1ccc(-c2ccccc2)cc1)c1ccc(CNCCC(=O)O)cc1 |  |  |  | 6.52 | 
C/C(=N\OCc1ccc(-c2ccc(C)cc2)cc1)c1ccc(CNCCC(=O)O)cc1 |  |  |  | 6.19 | 
C/C(=N\OCc1ccc(-c2ccc(F)cc2)cc1)c1ccc(CNCCC(=O)O)cc1 |  |  |  | 6.68 | 
C/C(=N\OCc1ccc(-c2ccc(C)cc2)c(C(F)(F)F)c1)c1ccc(CNCCC(=O)O)cc1 |  |  |  | 7.03 | 
C/C(=N\OCc1ccc(-c2ccc(C(F)(F)F)cc2)cc1)c1ccc(CNCCC(=O)O)cc1 |  |  |  | 5.00 | 
C/C(=N\OCc1ccc(-c2cccs2)c(C(F)(F)F)c1)c1ccc(CNCCC(=O)O)cc1 |  |  | 5.23 | 7.74 | 
C/C(=N\OCc1ccc(-c2ccccc2)cc1)c1ccc(CCC(N)(CO)CO)cc1 |  |  |  |  | Vdss [25]: 36.9 L/kg; half-life [26]: > 1800 min
C/C(=N\OCc1ccc(-c2ccccc2)c(F)c1)c1ccc(CNCCC(=O)O)cc1 |  |  |  | 7.21 | 
C/C(=N\OCc1ccc(-c2ccccc2C(F)(F)F)cc1)c1ccc(CNCCC(=O)O)cc1 |  |  |  | 5.77 | 
COc1ccc(-c2ccc(CO/N=C(\C)c3ccc(CNCCC(=O)O)cc3)cc2)cc1 |  |  |  | 5.82 | 
COc1ccccc1-c1ccc(CO/N=C(\C)c2ccc(CNCCC(=O)O)cc2)cc1 |  |  |  | 5.85 | 

The remaining molecules from weak to strong by pEC50 [4], led by results:

Emax [1] [%] | Emax [2] | pEC50 [3] | pEC50 [4] | Compound | further results
62 | 100% | 5.60 | 7.77 | C/C(=N\OCc1ccc(C2CCCCC2)c(C(F)(F)F)c1)c1ccc(CNCCC(=O)O)o1 | 
 |  |  | 7.80 | C/C(=N\OCc1ccc(-c2ccc(F)c(F)c2)c(C(F)(F)F)c1)c1ccc(CNCCC(=O)O)cc1 | 
 |  | 5.52 | 7.82 | C/C(=N\OCc1ccc(-c2ccco2)c(C(F)(F)F)c1)c1ccc(CNCCC(=O)O)cc1 | 
 |  |  | 7.96 | C/C(=N\OCc1ccc(-c2ccc(F)cc2)c(C(F)(F)F)c1)c1ccc(CNCCC(=O)O)cc1 | 
 |  |  | 8.05 | C/C(=N\OCc1ccc(-c2ccccc2)c(C(F)(F)F)c1)c1ccc(CNCCC(=O)O)cc1 | 
 |  |  | 8.10 | C/C(=N\OCc1ccc(-c2ccccc2F)c(C(F)(F)F)c1)c1ccc(CNCCC(=O)O)cc1 | 
44 | 86% | 5.37 | 8.59 | C/C(=N\OCc1ccc(C2CCCCC2)c(C(F)(F)F)c1)c1ccc(CNCCC(=O)O)nc1 | 
79 | 104% | 5.40 | 8.66 | C/C(=N\OCc1ccc(C2CCCCC2)c(C(F)(F)F)c1)c1ccc(CNCCC(=O)O)s1 | 
159 | 94% | 5.23 | 8.70 | C/C(=N\OCc1ccc(C2CCCCC2)c(C(F)(F)F)c1)c1ccc(CNCCC(=O)O)c(C)c1 | 
127 | 80% | 5.49 | 8.80 | C/C(=N\OCc1ccc(C2CCCCC2)c(C(F)(F)F)c1)c1ccc(CN2CC(C(=O)O)C2)c(C)c1 | 
53 | 92% | 5.59 | 8.85 | C/C(=N\OCc1ccc(C2CCCCC2)c(C(F)(F)F)c1)c1ccc(CNCCC(=O)O)cn1 | 
43 | 92% | 5.14 | 9.15 | CCc1cc(/C(C)=N/OCc2ccc(C3CCCCC3)c(C(F)(F)F)c2)ccc1CNCCC(=O)O | 
 |  | 5.80 | 9.22 | C/C(=N\OCc1ccc(C2CCCC2)c(C(F)(F)F)c1)c1ccc(CNCCC(=O)O)cc1 | 
50 | 106% | 5.72 | 9.22 | C/C(=N\OCc1ccc(C2CCCCC2)c(C(F)(F)F)c1)c1ccc(CNCCC(=O)O)c(Cl)c1 | 
65 | 85% | 5.96 | 9.40 | C/C(=N\OCc1ccc(C2CCCCC2)c(C(F)(F)F)c1)c1ccc(CNCCC(=O)O)c(Br)c1 | 
63 | 98% | 5.89 | 9.40 | C/C(=N\OCc1ccc(C2CCCCC2)c(C(F)(F)F)c1)c1ccc(CNCCC(=O)O)c(C2CC2)c1 | 
 |  | 5.82 | 9.52 | C/C(=N\OCc1ccc(C2CCCCC2)c(C(F)(F)F)c1)c1ccc(CNCCC(=O)O)cc1 | 
61 | 105% | 5.66 | 9.52 | C/C(=N\OCc1ccc(C2CCCCC2)c(C(F)(F)F)c1)c1ccc(CNCCC(=O)O)c(F)c1 | 
